Columns and labels:
HCC1428 tumors = assay: Cell line derived xenograft (CDX) study with HCC1428 tumors; assay type: in vivo, BALB/c nude mice
Method: For this xenograft, supplemental estradiol benzoate injections (40 μg/20 μl/mouse) are administered subcutaneously twice a week to BALB/c nude mice, starting one week prior to cell implantation and continuing through to the end of study. After implantation, HCC1428 tumor were allocated to treatment arms once a median tumor volume of about 181 mm^3 was reached. In Table 3A the abbreviation “p.o.” refers to oral administration and the abbreviation “QD×28” refers to administration once a day for 28 days.
Tumors were measured and mice were weighed twice a week during the experimental period. The tumor volume (mm3) was estimated using the formula: TV=a×b2/2, where “a” and “b” were the long and the short diameter of a tumor, respectively. The Tumor volumes were used to calculate tumor growth inhibition (TGI, an indicator of antitumor activity) using the formula: TGI %: (1−{T/T0/Ct/C0}/1−{C0/Ct})×100 where Tt=median tumor volume of treated at time t, T0=median tumor volume of treated at time 0, Ct=median tumor volume of control at time t and C0=median tumor volume of control at time 0.
For this xenograft, supplemental estradiol benzoate injections (40 μg/20 μl/mouse) are administered subcutaneously twice a week to BALB/c nude mice, starting one week prior to cell implantation and continuing through to the end of study. After implantation, HCC1428 tumor were allocated to treatment arms once a median tumor volume of about 181 mm^3 was reached. In Table 4A the abbreviation “p.o.” refers to oral administration and the abbreviation “QD×28” refers to administration once a day for 28 days.
Tumors were measured and mice were weighed twice a week during the experimental period. The tumor volume (mm^3) was estimated using the formula: TV=a×b2/2, where “a” and “b” were the long and the short diameter of a tumor, respectively. The Tumor volumes were used to calculate tumor growth inhibition (TGI, an indicator of antitumor activity) using the formula: TGI %: (1−{T/T0/Ct/C0}/1−{C0/Ct})×100 where Tt=median tumor volume of treated at time t, T0=median tumor volume of treated at time 0, Ct=median tumor volume of control at time t and C0=median tumor volume of control at time 0. […] At 100 mg/kg QD the mean tumor volume achieved was 116 mm3, on Day 71. The tumor growth inhibition (TGI) of these treatments compared with vehicle group on Day 28 or 71 of the treatment is summarized in Table 4B (See FIG. 3).

HBCx-22 tumor = assay: Patient-derived xenograft (PDX) study with HBCx-22; assay type: in vivo, Athymic Nude-Foxn1^nu mice; details: HBCx-22 PDX; for Regressions (%) / TGI (%) D42: Day 42
Method: Female Athymic Nude-Foxn1^nu mice with an established growing HBCx-22 tumor between 108 and 288 mm^3 were randomized into 4 treatment groups of 10 mice each, according to the groups listed in Table 5A, tumor-bearing mice receive estrogen diluted in drinking water (β-estradiol, 8.5 mg/l), from the date of tumor implant to the end of the study. In Table 5A, the abbreviation “p.o.” refers to oral administration, the abbreviation “QD” refers to administration once a day, and the abbreviation “BID” refers to administration twice a day.
Tumors were measured and mice were weighed twice per week during the experimental period. The tumor volume (mm^3) was estimated using the formula: tumor volume (TV)=a×b2/2, where “a” and “b” were the long and the short diameter of a tumor, respectively. The TVs were used to calculate tumor growth inhibition (TGI, an indicator of antitumor activity) using the formula TGI %: (1−{T/T0/Ct/C0}/1−{C0/Ct})×100 where Tt=median tumor volume of treated at time t, T0=median tumor volume of treated at time 0, Ct=median tumor volume of control at time t and C0=median tumor volume of control at time 0. […] Tumor regression represents tumor volume less than the initial tumor volume on D0.
Female Athymic Nude-Foxn1^nu mice with an established growing HBCx-22 tumor between 108 and 288 mm^3 were randomized into 5 treatment groups of 8 mice each, according to the groups listed in Table 6A, tumor-bearing mice receive estrogen diluted in drinking water (β-estradiol, 8.5 mg/l), from the date of tumor implant to the end of the study. In Table 6A, the abbreviation “p.o.” refers to oral administration, the abbreviation “QD” refers to administration once a day, and the abbreviation “BID” refers to administration twice a day.
Tumors were measured and mice were weighed twice per week during the experimental period. The tumor volume (mm^3) was estimated using the formula: tumor volume (TV)=a×b2/2, where “a” and “b” were the long and the short diameter of a tumor, respectively. The TVs were used to calculate tumor growth inhibition (TGI, an indicator of antitumor activity) using the formula TGI %: (1−{T/T0/Ct/C0}/1−{C0/Ct})×100 where Tt=median tumor volume of treated at time t, T0=median tumor volume of treated at time 0, Ct=median tumor volume of control at time t and C0=median tumor volume of control at time 0. […] Robust and statistically significant tumor growth inhibition was observed starting at a dose of 30 mpk with 4/8 as shown in Table 6B. Tumor regression represents tumor volume less than the initial tumor volume at DO.

[1] = 30 mg/kg p.o. QD × 28, Day 28, vs vehicle
[2] = Compound A study, 30 mg/kg QD p.o.
[3] = Compound A study, 100 mg/kg QD p.o.

## C[C@H]1CN(c2cc(S(=O)(=O)NC3(C)CC3)cc3c2cnn3-c2nnc(C(F)F)s2)C[C@H](C)N1 [Compound A, 1-(5-(difluoromethyl)-1,3,4-thiadiazol-2-yl)-4-((3S,5S)-3,5-dimethylpiperazin-1-yl)-N-(1-methylcyclopropyl)-1H-indazole-6-sulfonamide]
HCC1428 tumors; 3 mg/kg p.o. QD × 28, Day 28, vs vehicle
  TGI (%) D28 or 71: 23%
HCC1428 tumors; [1]
  TGI (%) D28 or 71: 54%
HCC1428 tumors; 100 mg/kg p.o. QD × 72, Day 71, vs vehicle
  TGI (%) D28 or 71: 103%
HCC1428 tumors; Compound A study, 3 mg/kg QD, Day 28
  mean tumor volume: 836 mm^3
HCC1428 tumors; Compound A study, 30 mg/kg QD, Day 28
  mean tumor volume: 570 mm^3
HCC1428 tumors; Compound A study, 100 mg/kg QD, Day 71
  mean tumor volume: 116 mm3
HBCx-22 tumor; 3 mg/kg QD p.o.
  Regressions (%): 0%
  TGI (%) D42: 0.1%
HBCx-22 tumor; 10 mg/kg QD p.o.
  Regressions (%): 0%
  TGI (%) D42: 31.8%
HBCx-22 tumor; [2]
  Regressions (%): 50%
  TGI (%) D42: 83.4%
HBCx-22 tumor; [3]
  Regressions (%): 62%
  TGI (%) D42: 108.5%
HBCx-22 tumor; Compound A study, 30 mpk
  tumor regression (mice): 4/8

## CC(C)C(=O)N1CCN(c2cc(S(=O)(=O)NC3(C#N)CC3)cc3c2cnn3-c2nnc(C(F)F)s2)C[C@H]1C [Compound B]
HCC1428 tumors; [1]
  TGI (%) D28: 81.7%
HCC1428 tumors; 100 mg/kg p.o. QD × 28, Day 28, vs vehicle
  TGI (%) D28: 89.0%
HCC1428 tumors; 300 mg/kg p.o. QD × 28, Day 28, vs vehicle
  TGI (%) D28: 94.6%
HCC1428 tumors; Compound B study, 30 mg/kg QD, Day 28
  mean tumor volume: 165 mm^3
HCC1428 tumors; Compound B study, 100 mg/kg QD, Day 28
  mean tumor volume: 103 mm^3
HCC1428 tumors; Compound B study, 300 mg/kg QD, Day 28
  mean tumor volume: 50 mm^3
HBCx-22 tumor; 30 mg/kg QD p.o.
  Regressions (%): 10%
  TGI (%) D42: 58.6%
HBCx-22 tumor; 30 mg/kg once daily
  partial regressions (mice): 1/10
  tumor stabilization: tumor stabilization for all mice
HBCx-22 tumor; 100 mg/kg BID p.o. (200 mg/kg/day)
  TGI (%) D42: 110.4%
HBCx-22 tumor; 100 mg/kg BID p.o.
  Regressions (%): 60%
HBCx-22 tumor; 100 mg/kg QD p.o.
  Regressions (%): 30%
  TGI (%) D42: 97.3%
HBCx-22 tumor; 100 mg/kg once daily
  partial tumor regression (mice): 3/10
HBCx-22 tumor; 100 mg/kg twice daily (200 mg/kg/day)
  partial tumor regression (mice): 6/10
